What was measured:
GCase = test: Phase 2 study: GCase activity in whole blood (dried blood spot, FIA-MS/MS); assay type: in vivo, human; conditions: vs placebo
Procedure: In addition, the PD biomarkers and GCase activity in whole blood samples are measured at baseline and week 78 (preferably baseline and weeks 4, 26, 52 and 78). This may include biomarkers of lysosomal activity (e.g., glucosylsphingosine (GluSph) and/or glucosylceramide (GluCer)). Methods of measuring lysosomal activity (e.g., GluSph and/or GluCer) are described above. A method of measuring GCase activity is described below. Magnetic resonance imagining (MRI) scans are performed at baseline and week 78 for a cohort of GBA-PD subjects.
The preferred method of measuring GCase activity in whole blood is described below, and also in Totorelli, 2016, which is incorporated herein by reference:
A 5-plex cocktail assay for GCase, acid a-glucosidase (GAA), galactocerebrosidase (GALC), a-galactosidase A (GLA), and a-L-iduronidase (IDUA) activity is prepared. Vials containing the substrate (S) and internal standards (IS) for GCase and GAA are reconstituted with methanol and transferred to the GALC S+IS vial followed by evaporation. The GLA S+IS vial is reconstituted with 1.8 mL of 96 g/L sodium taurocholate in water and then transferred to the dry GALC S+IS vial, which is then heated to 60° C. to dissolve all solids. […]

[1] = after 6 days of dosing with 60 mg, Madopar portion
Procedure: This was a Phase 1, non-randomized, open-label, 2-cohort, cross-over, DDI study in healthy male and female subjects.
In Cohort 2, a single oral dose 100 mg/25 mg levodopa-benserazide (Madopar®) IR was administered alone on Day 1.

[2] = BIA 28-6156-106 mass balance recovery, metabolite profiling and PK of 14C-Compound A; assay type: in vivo, human
Procedure: This was a Phase 1, single-dose, mass balance recovery study of ^14C-Compound A in 1 cohort of healthy male subjects, aged 30 to 65 years. A total of 6 subjects received a single oral dose of 60 mg Compound A, containing not more than 3.7 MBq ^14C, under fasted conditions. Objectives included determining the routes and rates of elimination of ^14C-Compound A, identifying the structure of metabolites that account for more than 10% of circulating total radioactivity in plasma and total radioactive dose in urine and feces, exploring the PK of Compound A, evaluating the extent of distribution of TR into blood cells, and gathering additional safety and tolerability information for Compound A.

[3] = LTI-291-004 imaging study in GBA-PD: plasma concentrations; assay type: in vivo, human; conditions: Day 7, Day 14, Day 28, GBA-PD
Procedure: This study was a Phase 1B, randomized, double-blind, placebo-controlled, multiple oral dose study of Compound A in 14 subjects (aged 51 to 81 years) with GBA-PD. The objectives of this study were to investigate the safety, tolerability, and PK of multiple once-daily oral administration of Compound A and to explore the accompanying pharmacodynamic changes. Subjects received once-daily oral doses of 10 mg (n=6) or 60 mg (2×30 mg capsules) (n=6) Compound A or placebo (n=2) for 28 consecutive days. PK samples were measured once on Day 7 and Day 14 and 4 times after the last dose on Day 28. Plasma concentrations were summarized at each time point, and no PK parameters were estimated. The PD evaluations included fMRI measures; FDG-PET to determine the metabolic rate of glucose in specific regions of the brain; and functional outcome measures (MDS-UPDRS Part III and the MMSE). GluCer, GluSph, and LacCer and other sphingolipids were measured in PBMCs and plasma as biomarkers of pharmacological effect.

[4] = J. M den Heijer, 2021; cited from earlier work
[5] = tested on: GluCer in plasma and PBMCs; test: LTI-291-001: GluCer biomarker; assay type: in vivo, human; conditions: single doses, vs placebo
Procedure: The pharmacodynamic evaluations consisted of a battery of CNS (NeuroCart®) assessments, including Saccadic Eye Movements, Smooth Pursuit Eye Movements, Adaptive Tracking, Body Sway, Visual Verbal Learning Test, and EEG. GluCer was measured in plasma and PBMCs as a biomarker of pharmacological effect.

Compound: CCCCCO[C@H]1CC[C@H](NC(=O)c2cnn3c(C)cc(C)nc23)CC1 [Compound A, 5,7-dimethyl-N-((1S*,4S)-4-(pentyloxy)cyclohexyl)pyrazolo[1,5-a]pyrimidine-3-carboxamide]
- Mean change in GCase activity in whole blood samples (GCase): higher
- steady state concentrations of Compound A [1]: appeared not to have been reached
- radioactivity recovered in excreta, mean ([2]; 60 mg 14C-Compound A oral, fasted, 288-hour sampling period): approximately 93%
- exposure to Compound A as share of circulating plasma total recovery ([2]; based on AUC0-inf): approximately 92%
- Tmax ([2]; male, human, plasma, single oral dose of 60 mg 14C BIA-28, read-out: Median Tmax): 1.5 h
- AUC(0-inf) ([2]; male, human, plasma, single oral dose of 60 mg 14C BIA-28, read-out: plasma AUC0-inf, geometric mean): 42100 ng·h/mL
- AUC(0-t) ([2]; male, human, plasma, single oral dose of 60 mg 14C BIA-28, read-out: plasma AUC0-last, geometric mean): 41700 ng·h/mL
- Cmax ([2]; male, human, plasma, single oral dose of 60 mg 14C BIA-28, read-out: plasma Cmax, geometric mean): 1750 ng/mL
- half-life ([2]; male, human, plasma, single oral dose of 60 mg 14C BIA-28, read-out: plasma half-life, geometric mean (converted)): 21.5 h
- Mean plasma concentrations, 60 mg vs 10 mg [3]: higher after the 60 mg dose than after the 10 mg dose
- safety and tolerability in healthy humans [4]: generally well tolerated
- GluCer variables in PBMCs [5]: Differences between treatment with Compound A and placebo were observed
- GluCer variables in plasma [5]: No significant overall treatment effects

Reference: patent US20260240851A1, “Treatment of Parkinson's Disease in a Patient Using a Glucocerebrosidase Activator” (BIAL - R&D Investments, S.A., priority 2023, published 2026)
